Our source for the IC50 values is US5679671A, “Amino acid derivative” (Eisai Co., Ltd., priority 1993, dated 1997).

The assay has as its target T1, ACE (Rattus norvegicus, UniProt P47820).
T1 construct: membrane fraction prepared from rat lung; from tissue; host or cells: rat lung, membrane fraction (method of Wu-Wong et al.)
T1 sequence (P47820 36-1313): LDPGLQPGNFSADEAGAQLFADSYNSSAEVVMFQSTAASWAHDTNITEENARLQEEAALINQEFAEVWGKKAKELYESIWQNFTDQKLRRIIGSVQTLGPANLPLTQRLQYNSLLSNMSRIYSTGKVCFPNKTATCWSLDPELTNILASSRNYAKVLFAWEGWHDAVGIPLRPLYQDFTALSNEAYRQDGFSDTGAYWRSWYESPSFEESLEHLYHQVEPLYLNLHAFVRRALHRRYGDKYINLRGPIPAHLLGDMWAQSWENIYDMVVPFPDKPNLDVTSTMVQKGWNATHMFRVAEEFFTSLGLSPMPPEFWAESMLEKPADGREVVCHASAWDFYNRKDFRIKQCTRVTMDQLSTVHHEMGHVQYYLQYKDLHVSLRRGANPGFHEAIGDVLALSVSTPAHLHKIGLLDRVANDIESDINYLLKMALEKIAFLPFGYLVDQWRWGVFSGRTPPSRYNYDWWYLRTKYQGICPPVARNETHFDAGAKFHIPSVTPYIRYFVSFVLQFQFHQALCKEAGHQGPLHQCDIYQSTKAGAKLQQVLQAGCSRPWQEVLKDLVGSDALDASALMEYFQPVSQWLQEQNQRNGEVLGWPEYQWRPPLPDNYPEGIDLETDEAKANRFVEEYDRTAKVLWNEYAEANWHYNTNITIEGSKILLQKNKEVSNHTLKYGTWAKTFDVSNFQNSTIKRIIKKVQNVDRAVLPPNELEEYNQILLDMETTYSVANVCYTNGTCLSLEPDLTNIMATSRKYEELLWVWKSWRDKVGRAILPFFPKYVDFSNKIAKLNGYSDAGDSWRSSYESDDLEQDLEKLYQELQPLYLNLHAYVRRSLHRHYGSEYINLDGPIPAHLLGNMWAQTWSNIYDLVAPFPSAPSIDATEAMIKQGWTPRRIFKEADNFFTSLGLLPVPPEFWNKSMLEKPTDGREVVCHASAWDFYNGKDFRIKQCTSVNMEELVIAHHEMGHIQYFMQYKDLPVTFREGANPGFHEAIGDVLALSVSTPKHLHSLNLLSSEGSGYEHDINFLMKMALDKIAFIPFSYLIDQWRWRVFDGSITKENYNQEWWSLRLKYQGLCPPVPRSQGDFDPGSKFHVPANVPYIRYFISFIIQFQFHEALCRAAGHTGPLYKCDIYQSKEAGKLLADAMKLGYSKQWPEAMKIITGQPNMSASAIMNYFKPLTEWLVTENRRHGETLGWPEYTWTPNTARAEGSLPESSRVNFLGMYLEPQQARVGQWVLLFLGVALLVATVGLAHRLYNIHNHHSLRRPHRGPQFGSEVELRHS
As to the kind of experiment: ACE inhibition activity using rat lung (Experiment C-2). Conditions: Table C-1; rat lung membrane fraction, borate buffer pH 8.3. The format is biochemical. Here is the method:
The ACE inhibition activity was determined by using a membrane fraction prepared from rat lung in accordance with the method of Wu-Wong et al. (Characterization of Endthelin Converting Enzyme in Rat Lung., Junshyum R. Wu-Wong, Gerald P. Budzik, Edward M. Devine and Terry J. Opgenorth, Biochem. Biophys. Res. Commun., 1990, 171, 1291-1296.).
The ACE activity was determined with the use of a modification (modified to a borate buffer, pH 8.3) of the method of Cushman and Cheung (Spectrophotometric Assay and Properties of the Angiotensin-Converting Enzyme of Rabbit Lung., Cushman D. W. and Cheung H. S., 1971, 20, 1637-1648.).
In the presence of ACE, the hippurate liberated from hippuryl-histidyl-leucine (Hippuryl-His-Leu (PeptideInstitute Inc., Japan)) was extracted with ethyl acetate and then the absorbance was measured at a wavelength of 228 nm.
With respect to the ACE inhibition activity, the test compound was added to the reaction system as described above in such a manner as to give the final concentrations of 1, 3, 10, 30, 100, 300 and 1000 nM, an inhibition curve was prepared, and then the concentration at which 50% inhibition was achieved was taken as IC50. As a comparative compound, [4S-[4α,7α(R*),12bβ]]-7-[(1-oxo-2-(S)-thio-3-phenyl-propyl)amino]-1,2,3,4,6,7,8,12b-octahydro-6-oxopyrido-[2,1-a][2]benzazepine-4-carboxylic acid was used.
The IC50 is the concentration at which inhibition is half-maximal. Read a high IC50 as lower potency. Molecule `O=C(N[C@H]1Cc2ccccc2[C@H]2CCC[C@@H](C(=O)O)N2C1=O)[C@@H](S)Cc1ccccc1` [Comp. cpd. E-1, [4S-[4α,7α(R*),12bβ]]-7-[(1-oxo-2-(S)-thio-3-phenyl-propyl)amino]-1,2,3,4,6,7,8,12b-octahydro-6-oxopyrido-[2,1-a][2]benzazepine-4-carboxylic acid, reference compound] returned an IC50 of 9 nM. `CC[C@H](C)[C@H](S)C(=O)NC1CCc2ccccc2N(CC(=O)O)C1=O` (stereo partly drawn) [Example A-9, 1-Carboxymethyl-3-[(2S,3S)-2-mercapto-3-methylvarelylamino]-1H-[1]benzazepin-2-one] displayed an IC50 of 13 nM. Consider `CC[C@H](C)[C@H](S)C(=O)N[C@H]1CCc2ccccc2N(CC(=O)O)C1=O` [Example A-11, (S)-3-[(2S,3S)-2-Mercapto-3-methylvarelylamino]-1-carboxymethyl-2,3,4,5-tetrahydro-1H-[1]benzazepin-2-one], for which half-maximal inhibition (IC50) was put at 11 nM. `CC[C@H](C)[C@H](S)C(=O)N[C@H]1CCC[C@H]2SC[C@@H](C(=O)O)N2C1=O` [Example C-8, [3R-[3α,6α,(S*),9aβ]]-6-[[(2S,3S)-3-methyl-1-oxo-2-thiopentyl]amino]-octahydro-5-oxothiazol[3,2-a]-azepine-3-carboxylic acid] yielded an IC50 of 5.3 nM. On to `CC[C@H](C)[C@H](S)C(=O)N[C@H]1Cc2ccc(-c3ccccc3)cc2[C@H]2CCC[C@@H](C(=O)O)N2C1=O` [Example C-14, [4S-[4α,7α(R*),12bβ]]-7-[[(2S,3S)-3-Methyl-1-oxo-2-thiopentyl]amino]-6-oxo-11-phenyl-1,2,3,4,6,7,8,12b-octahydropyrido[2,1-a][2]benzazepine-4-carboxylic acid], for which the IC50 is 12.3 nM.
